Patent US20030186352A1, “Apicomplexan chorismate synthase sequences and an inhibitor of the shikimate pathway” (priority 1998, published 2003)
≈ marks a conversion by molar mass, not a printed value.

Legend:
[1] = system: T. gondii tachyzoites (RH strain); assay: T. gondii growth inhibition in HFF monolayers, tritiated uracil uptake; assay type: cell-based, Toxoplasma gondii
Description: The improvements are based on microscopic visual imspection of infected and inhibitor treated cultures, and on quantitation of nucleic acid synthesis of the parasite by measure intake of ^3H uracil onto the parasite's nucleic acid. Uracil is not utilized by mammalian cells. […] Only the RH strain tachyzoites, cultured for up to 72 hours, had been used in previously reported assays. The use of Me49, Ptg, and R5 mutant are unique aspects of the methods used in these assays in this invention.
(§1) In these assays toxicity of a candidate inhibitor was assessed by its ability to prevent growth of human foreskin fibroblasts (HFF) after 4 days and after 8 days as measured by tritiated thymidine uptake and microscopic evaluation. Confluent monolayers of HFF were infected with tachyzoites and bradyzoites. Inhibitor was added one hour later. Non-toxic doses were used in parasite growth inhibition assays. Parasite growth was measured by ability to incorporate tritiated uracil during the last 18 hours of culture.
(§2) First the toxicity of gabaculine was assessed by its ability to prevent growth of human foreskin fibroblasts (HFF) as measured by ^3H-thymidine uptake and microscopic evaluation. Non-toxic doses were used in parasite growth inhibition assays. in vitro parasite growth inhibition assays included confluent monolayers of HFF infected with tachyzoites (RH) or mutant Me49 (R5). Gabaculine was added 1 hour later. Parasite growth was measured by the ability to incorporate 3H-uracil during the last 18 hours of culture. In addition, parasite growth was evaluated microscopically in Giemsa stained slides.
Confluent monolayers of HFF cells, grown in 96-well plates are infected with T. gondii tachyzoites of the RH strain and serial dilutions of anti-microbial compound are applied 1 hour later. T. gondii growth is assessed in these cultures by their ability to incorporate tritiated uracil (2.5 μCi/well) added during the last 18 hours of culture. After harvesting cells with an automatic cell harvester, uracil incorporation is measured by liquid scintillation.

[2] = system: mutant R5 strain of T. gondii; assay: Growth of mutant R5 strain of T. gondii in HFF, uracil uptake over 8 days; assay type: cell-based, Toxoplasma gondii; settings: 20 mM gabaculine or P/S, 8 days in culture
Description: Improvements were developed in the assays reported by Mack et al. (1984) and Holfels et al. (1994) to measure T. gondii replication in tissue culture. The improvements are based on microscopic visual imspection of infected and inhibitor treated cultures, and on quantitation of nucleic acid synthesis of the parasite by measure intake of ^3H uracil onto the parasite's nucleic acid. Uracil is not utilized by mammalian cells. […]
First the toxicity of gabaculine was assessed by its ability to prevent growth of human foreskin fibroblasts (HFF) as measured by ^3H-thymidine uptake and microscopic evaluation. […] Parasite growth was measured by the ability to incorporate 3H-uracil during the last 18 hours of culture. In addition, parasite growth was evaluated microscopically in Giemsa stained slides.
This mutant strain is atovaquone resistant and posseses certain characterisitics of the tachyzoite stage and certain characteristics of the bradyzoite stage. T. gondii growth is measure by their ability to incorporate tritiated uracil and is expressed as counts/minute (CPM) on the Y-axis. […]

[3] = system: human foreskin fibroblasts (HFF); assay: Toxicity to human foreskin fibroblasts, tritiated thymidine uptake and microscopy; assay type: cell-based; settings: similar concentrations (20 mM)
Description: as §1, §2
Inhibitor compounds are tested over a range of concentrations for toxicity against mammalian cells by assessing their ability to prevent cell growth as measured by tritiated thymidine uptake and inspection of the monolayer using microscopic evaluation. […]

[4] = system: C. parvum; assay: C. parvum infection of MDBKF5D2 cell monolayers, immunofluorescence assay at 48 hours; assay type: cell-based, Cryptosporidium parvum; settings: for approximate 95% Cl count (mean parasite count per field): media alone ~1800
Description: C. parvum oocysts at 50,000/well were incubated at 37° C. (8% CO2) on confluent MDBKF5D2 cell monolayers in 96 well microtiter plates with the following concentrations of each drug. […] The level of infection of each well was determined and analyzed by an immunofluorescence assay at 48 hours using an antibody to C. parvum sporozoites made in rabbits at a concentration of 0.1%. Fluorescein-conjugated goat anti-rabbit antibody was used at a concentration of 1%.
C. parvum oocysts at 50,000/well were incubated with each drug (PRM=paromomycin which is the positive control, NPMG, gabaculine, SHAM, 8-hydroxyquinoline) at 37° C. (8% carbon dioxide) on confluent MDBKF5D2 cell monolayers in 96 well microtiter plates. The level of infection of each well was determined and analyzed by an immunofluorescence assay at 48 hours using as an antibody C. parvum sporozoite rabbit anti-serum (0.1%), and using fluorescein-conjugated goat anti-rabbit antibody (1%). Data are expressed as mean parasite count/field when 16 fields counted at 10× magnification “s.d. of the mean” (FIG. 6).

[5] = system: P. falciparum; assay: P. falciparum in vitro growth assay, clone not stated; assay type: cell-based, Plasmodium falciparum
Description: This assay is performed in folate deficient RPMI 1640 over a 66 hour incubation in plasma as described by Milhous et al. (1985). Both the W2 clone DHFR resistant phenotype and the D6 clone are used (Odula et al., 1988) (Table 3).

[6] = system: D6 clone of Plasmodium falciparum; assay: P. falciparum in vitro growth assay (Milhous et al.), D6 clone; assay type: cell-based; settings: Plasmodium falciparum, D6 clone
[7] = system: W2 clone of Plasmodium falciparum; assay: P. falciparum in vitro growth assay (Milhous et al.), W2 clone; assay type: cell-based; settings: Plasmodium falciparum, W2
[8] = system: EPSP synthase; assay: T. gondii EPSP synthase enzyme assay (HPLC detection of EPSP); assay type: biochemical; settings: 1 mM
Description: Assays for 4-aminobenzoate and 4-amino-4-deoxychorismate are performed as described previously.” Enzyme Assays: The 5-enolpyruvylshikimate-3-phosphate (EPSP) synthase assay entailed monitoring the generation of EPSP using HPLC. Reaction components were separated using a Hypersil H3APS2 HPLC column (Hichrom Limited, Reading, UK) and a NaH2PO4 elution gradient (50-400 mM). UV spectra (200-300 nm) of the colume eluate were collected to identify eluants. […] The peaks at 215 nm were integrated; the EPSP produced was quantified using a standard curve of authentic EPSP. Parasite extracts were produced at 4° C. by suspension of pure tachyzoites in extraction buffer (50 mM Tris.HCl, pH 7.5, containing complete TM protease inhibitor cocktail [Boehringer Mannheim, 1 tablet per 50 ml buffer]), sonication 3 times for 3 seconds at 30 second intervals, and centrifugation at 12000 g for 15 min. The resulting supernatant was diluted 6-fold with extraction buffer and loaded onto a ResourceQ column (1 ml, Pharmacia) equilibrated with extraction buffer. The bound protein was eluted in a single step using extraction buffer containing 500 mM Kcl. The eluted material was used for enzyme assay. The assay mix contained 1 mM phosphoenolpyruvate, 1 mM SP and 50 mM HEPES, pH 7.5. […] Protein concentrations of lysates were determined using the Lowry method. […]

## NC1C=CC=C(C(=O)O)C1 (stereo not drawn) [gabaculine, 3-amino-2,3-dihydrobenzoic acid]
[1]; RH, 20 mM gabaculine or P/S, uracil CPM
  parasite growth over the 8 day time course: restricted
[1]; Toxoplasma gondii, 96 h, gabaculine 5 mM, 4 days, medium about 36,000 CPM
  inhibition at 5000 µM: ~60%
[1]; gabaculine 5 mM, 4 day assay, medium around 45,000 CPM
  restriction of CPM (tritiated uracil incorporation): around 50%
[1]; gabaculine 20 mM, 4 days, medium around 45,000, no RH around 2,000 CPM
  counts (tritiated uracil incorporation): about 5,000 CPM
[2]
  period over which parasite growth was restricted: over the first 6 days of culture, after which a marked increase in parasite growth was detected
[3]
  toxicity to the foreskin fibroblasts: no toxicity
[4]; gabaculine 0.2 μg/ml
  approximate 95% Cl count (mean parasite count per field): ~1300 count/field
[4]; gabaculine 2 μg/ml
  approximate 95% Cl count (mean parasite count per field): ~600 count/field
[4]; gabaculine 20 μg/ml
  approximate 95% Cl count (mean parasite count per field): ~200 count/field
[5]; Plasmodium falciparum
  IC50: ≥ 45 µg/mL

## O=C(O)CNCP(=O)(O)O [NPMG, N-(phosphonomethyl) glycine]
[1]; NPMG 3.12 mM, 4 day assay, medium around 72,000
  restriction of CPM (tritiated uracil incorporation): around 60%
[1]; NPMG 4.5 mM, 4 days, medium around 72,000, no RH around 2,000 CPM
  counts (tritiated uracil incorporation): about 12,000 CPM
[1]; PABA at increasing concentrations added to cultures
  product rescue by PABA of NPMG inhibition of nucleic acid synthesis: PABA abrogates the inhibitory effects
[1]; Toxoplasma gondii, 96 h, NPMG 4.5 mM, 4 day assay, read-out: inhibition of parasite growth
  inhibition at 4500 µM: ~80%
[4]
  product rescue by PABA of NPMG effect on C. parvum: not abrogated by PABA
[4]; NPMG 0.45 μg/ml
  approximate 95% Cl count (mean parasite count per field): ~1200 count/field
[4]; NPMG 4.5 μg/ml
  approximate 95% Cl count (mean parasite count per field): ~900 count/field
[4]; NPMG 0.045
  approximate 95% Cl count (mean parasite count per field): ~1200 count/field
[6]; read-out: IC 50
  IC50: 0.823 µg/mL (≈ 4.87 µM)
[6]; read-out: IC 90
  IC90: 2.51 µg/mL (≈ 14.8 µM)
[7]
  IC50: 1.72 µg/mL (≈ 10.1 µM)
  IC90: 3.4 µg/mL (≈ 20.1 µM)
[5]; PABA and folate
  product rescue of glyphosate inhibition of in vitro growth of asexual erythrocytic forms: PABA and folate antagonism of growth inhibition
[8]
  inhibition of T. gondii EPSP synthase enzyme activity: inhibition of EPSP synthase enzyme activity
